Experimental data taken from patent publication US6355632B1, “Naphthyl compounds, intermediates, compositions, and methods” (Eli Lilly and Company, priority 1995, dated 2002).
Counter-ions that a name gives are not always drawn.

**Q.** For `COc1ccc(-c2ccc3cc(OC)ccc3c2Oc2ccc(OCCN3CCCCC3)cc2)cc1` (as salt: hydrochloride) [Example 4, 1-[4-[2-(1-piperdinyl)ethoxy]phenoxy]-2-(4-methoxyphenyl)-6-methoxynaphthalene hydrochloride], which melting point is on record?
**A.** 184 to 188 °C
